{"source": "patent US20210338692A1", "about": "“A 19-NOR C3,3-DISUBSTITUTED C21-N-PYRAZOLYL STEROID AND METHODS OF USE THEREOF” (SAGE THERAPEUTICS, INC., priority 2018, published 2021)", "key": {"[1]": {"system": "female subjects diagnosed with severe postpartum depression", "experiment": "Placebo-controlled study of Compound 1 in postpartum depression (HAM-D, MADRS, HAM-A, CGI-I)", "type": "in vivo, human", "details": "30 mg once a day for 15 days", "protocol": "Compound 1 was investigated for use in subjects with depression. Female subjects (18-65 years old) diagnosed with severe postpartum depression (PDD) with a HAM-D total score of greater than or equal to 26 at screening and Day 1 were used in the investigation. The subjects were dosed once per day with capsules containing 30 mg of Compound 1. The dose could be adjusted to capsules containing 20 mg of Compound 1 if the 30 mg dose was not tolerated. Subjects not dosed with Compound 1 were dosed with a placebo. In total, 78 subjects were treated with Compound 1 at 30 mg and 73 subjects were treated with placebo.\nAssuming a 2-sided test at an alpha level of 0.05, a sample size of approximately 65 evaluable subjects per treatment group provided 90% power to detect a placebo-adjusted treatment difference of approximately 4 points in the primary endpoint, change from baseline in HAM-D total score at Day 15 assuming standard deviation (SD) of 7 points. The change from baseline in the HAM-D total score was analyzed using a mixed effects model for repeated measures (MMRM). The model included the change from baseline at each visit as the dependent variable. The main comparison was (difference in least mean square [LSMEAN]) between Compound 1 Capsules and placebo at the 15-day timepoint. […]"}, "[2]": {"system": "synaptic and extrasynaptic GABAA receptors", "details": "cited from earlier work"}, "subjects with MDD": {"system": "subjects with MDD", "experiment": "Earlier clinical studies of Compound 1 in subjects with MDD (Phase 2 study, previous clinical trials)"}}}
{"smiles": "C[C@@]1(O)CC[C@H]2[C@H](CC[C@@H]3[C@@H]2CC[C@]2(C)[C@@H](C(=O)Cn4cc(C#N)cn4)CC[C@@H]32)C1", "note": "[Compound 1]", "values": [{"measurement": "overall efficacy in postpartum depression compared to placebo", "setting": "[1]", "value": "effective at treating postpartum depression"}, {"measurement": "mode of action at GABAA receptors", "setting": "[2]", "value": "positive allosteric modulator of GABAA receptors"}, {"measurement": "efficacy and tolerability of the dose level", "setting": "subjects with MDD; 30 mg per day, Phase 2 study in subjects with MDD", "value": "efficacious and well-tolerated"}, {"measurement": "subjects with HAM-D score of 16 to 21 among those achieving remission or response at Day 15", "setting": "subjects with MDD; Day 42", "value": 18.2, "unit": "%"}, {"measurement": "subjects with HAM-D≥22 among those achieving remission or response at Day 15", "setting": "subjects with MDD; Day 42", "value": 6.1, "unit": "%"}, {"measurement": "adverse effect when administered in the morning", "setting": "subjects with MDD; previous clinical trials, administered in the morning", "value": "sedation/somnolence observed"}, {"measurement": "tolerability when given in the evening", "setting": "subjects with MDD; previous clinical trials, given in the evening", "value": "improved tolerability"}]}
